Reference: patent publication US20090047282A1, “Prophylactic/Therapeutic Agent for Cancer” (priority 2005, published 2009)
Where no end group is shown, it is not given here. The star is where a group is joined. Biotin = O=C1N[C@H]2[C@H](CS[C@H]2CCCCC(=O)*)N1

Legend:
[1] = system: human HHAT; test: HHAT activity measurement with [3H] palmitoyl CoA and biotinylated substrate peptide on Streptavidin FlashPlate; format: biochemical; conditions: 10 μM substrate peptide, reaction 1 hour, FIG. 2
Description: A peptide (Shh-(24-38)) having 15-mer peptide comprised of amino acids from the 24th position to the 38th position of human Shh (SEQ ID NO: 22) modified with biotin at the lysine residue at the carboxylic terminus, and a peptide (Shh-(24-45)) having 22-mer peptide comprised of amino acids from the 24th position to the 45th position of human Shh modified with biotin at the lysine residue at the carboxylic terminus, were synthesized as a substrate peptide. An HHAT activity measuring system was produced by adding 50 μl reaction buffer (10 mM Tris-HCl (pH7.4), 50 mM magnesium chloride, 2 μM [^3H] palmitoyl CoA, and 400 μg/ml of HHAT enzyme solution) to a 96-well plate coated with streptavidin and a scintillator (Streptavidin FlashPlate, PerkinElmer). The above-mentioned synthetic peptides were added to the reaction system and reacted for a predetermined period. Then, the reaction was terminated by adding 200 μl of 1% aqueous solution of Triton X-100 to the reaction solution. After the reaction, the radioactivity of the reaction solution was measured by the scintillation counter as an HHAT activity.
[^3H] palmitoyl CoA was prepared from [^3H] palmitic acid (GE Healthcare) by a method described in Methods in Enzymology, 250, 299-300, 1995. […]

[2] = system: human HHAT; test: Knockdown efficiency of siRNA checked with the TaqMan method (quantitative RT-PCR), human HHAT expression; format: cell-based; conditions: HT-29 cells, 100 nM siRNA, 5th day after introduction, vs non-silencing siRNA
Protocol: (§1) […] After culturing the cells overnight, siRNA to human Shh (Ambion; SEQ ID NO: 19), siRNA to human HHAT (Ambion; SEQ ID NO: 20), or non-silencing siRNA (Dhamacon, SEQ ID NO: 21) as a control was introduced. The introduction was performed by adding a mixture of 0.4 μl of DhamaFECT4 reagent (Dhamacon) per well and 100 nM of each siRNA to the cells. The knockdown efficiency of each siRNA at this point was checked with the TaqMan method. On the 5th day after the introduction of siRNA, total RNA was extracted from the HT-29 cells using RNeasy mini kit (QIAGEN), and cDNA was synthesized from a random primer using the TaqMan Gold RT-PCR kit (Applied Biosystems). 2 μl of the synthesized cDNA, 10 μl of 2×TaqMan Universal PCR Master Mix (Applied Biosystems), 1 μl of 20×TaqMan Gene Expression Assay (Applied Biosystems) to the human Shh or HHAT, and 7 μl of distilled water were added together to a total amount of 20 μl. This was used as a reaction solution of quantificative RT-PCR.
(§2) Regarding the reaction solution, the expression of human Shh or human HHAT was quantified in the ratio to GAPDH using the ABI PRISM 7700 Sequence Detection System. As compared with the control, the gene expression was suppressed by about 75% in the case of siRNA to human Shh and by about 60% in the case of siRNA to human HHAT.

[3] = system: human Shh; test: Knockdown efficiency of siRNA checked with the TaqMan method (quantitative RT-PCR), human Shh expression; format: cell-based; conditions: HT-29 cells, 100 nM siRNA, 5th day after introduction, vs non-silencing siRNA
Protocol: as §1, §2

Row | Substance | HHAT activity (radioactivity of [3H]-palmitic acid added to the substrate peptide) compared with control without HHAT enzyme solution [1] | further results
1 | Shh-(24-38): 15-mer peptide of amino acids 24 to 38 of human Shh (SEQ ID NO: 22), biotin-modified at the carboxy-terminal lysine residue; HHAT substrate peptide (CGPGRGFGKRRHPKK(Biotin)) | conspicuous increase of the radioactivity | 
2 | Shh-(24-45): 22-mer peptide of amino acids 24 to 45 of human Shh, biotin-modified at the carboxy-terminal lysine residue; HHAT substrate peptide (CGPGRGFGKRRHPKKLTPLAYK(Biotin)) | conspicuous increase of the radioactivity | 
3 | siRNA to human HHAT: siRNA to human HHAT (Ambion; SEQ ID NO: 20) (GGAAUUUGAGCUGGAGACUTT; chemistry not given here) |  | suppression of gene expression of human HHAT (ratio to GAPDH) compared with the control [2]: about 60%
4 | siRNA to human Shh: siRNA to human Shh (Ambion; SEQ ID NO: 19) (GGGAAGAUCUCCAGAAACUTT; chemistry not given here) |  | suppression of gene expression of human Shh (ratio to GAPDH) compared with the control [3]: about 75%
